Measurements from US20090042993A1, “IDENTIFICATION OF NOVEL POST-TRANSLATIONAL PROTEIN MODIFICATIONS” (priority 2007, published 2009).

Tested on: BACE1
Assay: BACE1 lysine acetylation (immunoprecipitation, anti-acetylated lysine blot, LC-MS/MS mapping) in CHO cells
Type: cell-based, human
Description: Chinese Hamster Ovary (CHO) cells were grown in DMEM (Gibco BRL—Invitrogen, Carlsbad, Calif.) supplemented with 10% fetal bovine serum (FBS) and penicillin/streptomycin (Mediatech, Inc., Herndon, Va.) as described before (Puglielli et al., 2001, Nat. Cell Biol. 3: 905-912; Puglielli et al., 2003, J. Biol. Chem. 278: 19777-19783; Costantini et al., 2005, Biochem. J. 391: 59-67; Costantini et al., 2006, EMBO J. 25: 1997-2006). Cells were maintained in a humidified atmosphere with 5% CO2. For ceramide treatment, C6-ceramide (also simply called ceramide herein) was administered at the final concentration of 10 μM; treatment was started when cells were ˜30% confluent and carried out for 4 days, unless specified otherwise. Treatment with proteasome inhibitors MG-132 (5 μM) and lactacystin (10 μM) was done for 10 hours, as described earlier (Qing et al., 2004, FASEB J. 18: 1571-1573).
For the immunoprecipitation of BACE1, cell lysates were pre-cleared with BioMag Protein A (Polysciences, Inc., Warrington, Pa.); beads were used at the concentration of 15 μl of the slurry per sample and separated with a magnetic holder. BACE1 was then immunoprecipitated with anti-BACE1 antibodies overnight and recovered with BioMag Protein A as above. The immunoprecipitate-bead complexes were washed 3 times in PBS and boiled for 10 min in SDS sample buffer (Invitrogen) with β-mercaptoethanol. Beads were then separated and the samples were analyzed by reducing SDS-PAGE.
BACE1-myc was purified via affinity chromatography on a ProFound c-Myc-Tag IP/Co-IP kit (Pierce). Each BACE1 preparation was then precipitated by addition of 4 volumes of acetone, pelletted by centrifugation, washed, and vacuum-dried. […]
A portion of each purified digest, corresponding to 10 μg of pre-digested protein, was analyzed by μLC-MS/MS using a Micromass Q-TOF2 spectrometer to locate acetylation sites. […] Charge dependent collision energy profiles were empirically pre-determined. […]

## CCCCCCCCCCCCC/C=C/[C@@H](O)[C@H](CO)NC(=O)CCCCC [ceramide, C6-ceramide]
CHO cells stably expressing BACE1Ala grown with ceramide
  acetylation of BACE1Ala in vivo: did not induce acetylation
MS/MS of tryptic digests, two residues acetylated prior to ceramide treatment
  number of acetylated lysine residues of BACE1: increased to seven
Ceramide treatment of cells
  BACE1 acetylation: stimulates BACE1 acetylation
